Measurements as given in US20230310399A1, “COMBINATORIAL THERAPEUTIC SYSTEMS AND METHODS THAT INCLUDE SYSTEMIC, CENTRALLY AND PERIPHERALLY ACTING ANALGESICS” (COGNIFISENSE, INC., priority 2020, published 2023).
Entries after “also recorded” stand apart in the source; their conditions may differ.

System: patient's amount of pain
Assay: Potential patient responses to combinatorial therapy: amount of pain over time (FIGS. 5A-5C)
Format: in vivo, patients
Conditions: combinatorial therapeutic system with VRNT; potential individual patient responses
Text: FIGS. 5A-5C illustrate exemplary graphs of potential effects of combinatorial therapeutic systems/methods employing oliceridine and VRNT on a patient's amount of pain over time; and
The synergistic effects of the disclosed combinatorial therapeutic systems/methods can be exemplified in a plurality of responses. For example, FIGS. 5A-5C illustrate a combinatorial therapy using oliceridine (as the systemic, centrally and peripherally acting analgesic) and VRNT (as the artificial sensory experience) with different potential patient responses. As many, if not all, patients may experience the synergistic benefits afforded by the disclosed combinatorial therapeutic systems/methods as an average benefit, the individual-specific responses may be different.

SMILES: COc1ccsc1CNCC[C@@]1(c2ccccn2)CCOC2(CCCC2)C1 [oliceridine]
- patient's amount of pain over time: constant or linear decrease in pain over time; also recorded: cyclical decrease and increase in pain levels over time with an overall decreasing pain level; also recorded: stepwise reduction in pain levels
